Assays:
[1] = molecular target: T1, 17-beta-hydroxysteroid dehydrogenase type 3 (Homo sapiens) (UniProt P37058); test: Inhibition of human 17beta-HSD3 expressed in HEK293 cells assessed as enzyme-mediated transformation of [14C]-4-androstene-3,17-dione in to [14C]-testosterone at 0.1 uM; assay type: cell-based
T1 sequence (whole entry): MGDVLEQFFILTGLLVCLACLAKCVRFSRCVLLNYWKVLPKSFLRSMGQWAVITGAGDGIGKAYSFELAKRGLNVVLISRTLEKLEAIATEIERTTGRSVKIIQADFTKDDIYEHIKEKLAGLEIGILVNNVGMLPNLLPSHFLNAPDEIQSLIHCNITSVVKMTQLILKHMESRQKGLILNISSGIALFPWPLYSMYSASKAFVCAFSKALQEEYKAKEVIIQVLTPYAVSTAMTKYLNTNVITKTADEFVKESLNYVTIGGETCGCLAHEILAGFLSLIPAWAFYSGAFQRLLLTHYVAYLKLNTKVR

[2] = molecular target: T2, Estrogen receptor (Rattus norvegicus) (UniProt P06211); test: Binding affinity to rat uterus estrogen receptor at 1 uM
T2 sequence (whole entry): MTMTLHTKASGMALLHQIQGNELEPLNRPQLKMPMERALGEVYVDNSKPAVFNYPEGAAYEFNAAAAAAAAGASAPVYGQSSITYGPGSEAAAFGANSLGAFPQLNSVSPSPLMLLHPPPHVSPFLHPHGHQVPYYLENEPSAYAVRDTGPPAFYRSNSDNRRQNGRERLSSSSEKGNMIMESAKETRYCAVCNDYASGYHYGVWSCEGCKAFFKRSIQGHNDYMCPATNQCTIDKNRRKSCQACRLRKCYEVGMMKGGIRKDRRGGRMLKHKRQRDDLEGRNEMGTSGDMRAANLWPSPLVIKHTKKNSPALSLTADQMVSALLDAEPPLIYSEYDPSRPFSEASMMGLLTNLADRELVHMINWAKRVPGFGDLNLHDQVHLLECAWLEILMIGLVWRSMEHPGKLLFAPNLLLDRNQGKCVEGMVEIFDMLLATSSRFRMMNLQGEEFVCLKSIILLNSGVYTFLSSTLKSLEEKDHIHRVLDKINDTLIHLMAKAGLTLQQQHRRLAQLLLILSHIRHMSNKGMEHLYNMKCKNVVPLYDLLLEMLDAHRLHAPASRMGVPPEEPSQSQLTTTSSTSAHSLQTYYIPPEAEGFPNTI

[3] = molecular target: T3, Progesterone receptor (Rattus norvegicus) (UniProt Q63449); test: Binding affinity to rat uterus progesterone receptor at 0.01 uM
T3 sequence (whole entry): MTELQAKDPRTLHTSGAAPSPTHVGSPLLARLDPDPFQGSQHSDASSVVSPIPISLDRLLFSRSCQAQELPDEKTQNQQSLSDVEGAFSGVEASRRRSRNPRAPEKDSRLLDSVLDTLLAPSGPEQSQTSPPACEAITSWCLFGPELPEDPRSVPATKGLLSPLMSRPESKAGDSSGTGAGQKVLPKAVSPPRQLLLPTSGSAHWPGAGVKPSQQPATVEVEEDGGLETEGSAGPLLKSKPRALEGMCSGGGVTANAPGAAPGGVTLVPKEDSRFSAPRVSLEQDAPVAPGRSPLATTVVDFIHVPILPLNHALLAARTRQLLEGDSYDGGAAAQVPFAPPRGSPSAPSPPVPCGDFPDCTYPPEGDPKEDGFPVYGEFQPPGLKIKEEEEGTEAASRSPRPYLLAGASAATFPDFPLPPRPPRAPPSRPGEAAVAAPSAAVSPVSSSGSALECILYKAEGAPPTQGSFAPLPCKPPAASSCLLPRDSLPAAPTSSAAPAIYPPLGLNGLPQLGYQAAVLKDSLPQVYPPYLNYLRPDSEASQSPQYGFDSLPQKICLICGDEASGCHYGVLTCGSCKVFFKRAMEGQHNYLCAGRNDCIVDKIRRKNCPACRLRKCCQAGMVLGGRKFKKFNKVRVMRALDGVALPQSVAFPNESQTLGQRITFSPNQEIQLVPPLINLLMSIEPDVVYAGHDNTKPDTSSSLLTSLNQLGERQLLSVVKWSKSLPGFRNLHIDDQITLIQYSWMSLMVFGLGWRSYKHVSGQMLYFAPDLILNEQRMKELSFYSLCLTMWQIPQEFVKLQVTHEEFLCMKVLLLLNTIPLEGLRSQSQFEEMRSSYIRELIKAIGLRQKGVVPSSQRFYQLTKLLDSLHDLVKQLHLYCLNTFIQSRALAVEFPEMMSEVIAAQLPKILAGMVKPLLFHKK

[4] = molecular target: T2, Estrogen receptor (Rattus norvegicus); test: Binding affinity to rat uterus estrogen receptor at 10 uM
[5] = molecular target: T4, Androgen receptor (Rattus norvegicus) (UniProt P15207); test: Binding affinity to rat ventral prostate androgen receptor at 10 uM; assay type: tissue-based; conditions: Prostate gland
T4 sequence (whole entry): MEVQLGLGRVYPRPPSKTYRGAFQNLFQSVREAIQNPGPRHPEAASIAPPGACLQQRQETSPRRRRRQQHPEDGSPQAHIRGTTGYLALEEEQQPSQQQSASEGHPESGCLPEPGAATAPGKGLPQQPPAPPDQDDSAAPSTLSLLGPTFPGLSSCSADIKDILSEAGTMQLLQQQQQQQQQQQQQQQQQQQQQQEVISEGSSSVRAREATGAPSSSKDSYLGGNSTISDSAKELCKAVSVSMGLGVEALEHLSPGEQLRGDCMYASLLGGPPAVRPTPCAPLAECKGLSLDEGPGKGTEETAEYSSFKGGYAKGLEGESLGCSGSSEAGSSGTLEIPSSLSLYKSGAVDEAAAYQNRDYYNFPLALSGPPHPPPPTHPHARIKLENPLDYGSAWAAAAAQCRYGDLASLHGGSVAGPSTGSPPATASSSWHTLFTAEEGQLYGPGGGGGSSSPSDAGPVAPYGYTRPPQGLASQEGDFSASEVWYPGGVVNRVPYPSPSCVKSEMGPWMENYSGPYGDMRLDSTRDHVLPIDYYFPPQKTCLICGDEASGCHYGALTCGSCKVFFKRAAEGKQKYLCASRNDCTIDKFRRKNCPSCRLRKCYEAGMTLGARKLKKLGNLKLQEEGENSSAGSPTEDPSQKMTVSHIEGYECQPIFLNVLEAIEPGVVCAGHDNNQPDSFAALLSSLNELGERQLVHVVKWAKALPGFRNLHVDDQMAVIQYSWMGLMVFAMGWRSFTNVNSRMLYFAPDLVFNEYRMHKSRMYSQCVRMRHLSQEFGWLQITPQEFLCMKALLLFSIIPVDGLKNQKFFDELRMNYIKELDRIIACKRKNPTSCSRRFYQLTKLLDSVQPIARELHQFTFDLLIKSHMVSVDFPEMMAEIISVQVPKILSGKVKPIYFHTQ

Row | Activity [4] [%] | Activity [5] [%] | SMILES | inhibition [1] [%] | Activity [2] [%] | Activity [3] [%]
1 | – | – | CC1(C)CC[C@@]2(CC[C@H]3[C@@H]4CCc5ccccc5[C@H]4CC[C@@]32C)OC1=O | 25 | 0 | 0
2 | 80 | 6 | CC1(C)CC[C@@]2(CC[C@H]3[C@@H]4CCc5cc(O)ccc5[C@H]4CC[C@@]32C)OC1=O | – | – | –
